Test results taken from patent publication US7528253B2, “Compounds having β2 adrenergic receptor agonist and muscarinic receptor antagonist activity” (Theravance, Inc., priority 2004, dated 2009).

Tests used:
[1] = target: T1, human β2 adrenergic receptor (Homo sapiens, UniProt P07550); assay: Radioligand binding assay for human β2 adrenergic receptor (Assay Test Procedure A); conditions: displacement of [3H]-dihydroalprenolol, CHO membranes
T1 construct: expressed in transfected cells; membranes prepared
Protocol: Chinese hamster ovarian (CHO) cell lines stably expressing cloned human β1, β2 or β3 adrenergic receptors, respectively, were grown to near confluency in Hams F-12 media with 10% FBS in the presence of 500 μg/mL Geneticin. The cell monolayer was lifted with 2 mM EDTA in PBS. Cells were pelleted by centrifugation at 1,000 rpm, and cell pellets were either stored frozen at −80° C. or membranes were prepared immediately for use. For preparation of β1 and β2 receptor expressing membranes, cell pellets were re-suspended in lysis buffer (10 mM HEPES/HCl, 10 mM EDTA, pH 7.4 at 4° C.) and homogenized using a tight-fitting Dounce glass homogenizer (30 strokes) on ice. […] The protein concentration of the membrane suspension was determined by the methods described in Lowry et al., 1951, Journal of Biological Chemistry, 193, 265; and Bradford, Analytical Biochemistry, 1976, 72, 248-54. […]
Binding assays were performed in 96-well microtiter plates in a total assay volume of 100 μL with 10-15 μg of membrane protein containing the human β1, β2 or β3 adrenergic receptors in assay buffer (75 mM Tris/HCl pH 7.4 at 25° C., 12.5 mM MgCl2, 1 mM EDTA, 0.2% BSA). […] Non-specific binding was determined in the presence of 10 μM propranolol. […] Filter plates were washed three times with filtration buffer (75 mM Tris/HCl pH 7.4 at 4° C., 12.5 mM MgCl2, 1 mM EDTA) to remove unbound radioactivity. […]

[2] = target: T2, M3 muscarinic receptor (hM3) (Homo sapiens, UniProt P20309); assay: Radioligand binding assay for muscarinic receptors (Assay Test Procedure B); conditions: displacement of [3H]-NMS, CHO cell membranes
T2 construct: expressed in transfected cells; membranes prepared
Protocol: CHO cell lines stably expressing cloned human hM1, hM2, hM3 and hM4 muscarinic receptor subtypes, respectively, were grown to near confluency in HAM's F-12 media supplemented with 10% FBS and 250 μg/mL Geneticin. The cells were grown in a 5% CO2, 37° C. incubator and lifted with 2 mM EDTA in dPBS. Cells were collected by 5 minute centrifugation at 650× g, and cell pellets were either stored frozen at −80° C. or membranes were prepared immediately for use. For membrane preparation, cell pellets were resuspended in lysis buffer and homogenized with a Polytron PT-2100 tissue disrupter (Kinematica AG; 20 seconds×2 bursts). Crude membranes were centrifuged at 40,000× g for 15 minutes at 4° C. […] The protein concentration of the membrane suspension was determined by the method described in Lowry et al., 1951, Journal of Biochemistry, 193, 265. […]
Radioligand binding assays for cloned human muscarinic receptors were performed in 96-well microtiter plates in a total assay volume of 100 μL. […] Filter plates were rinsed three times with wash buffer (10 mM HEPES) to remove unbound radioactivity. […] The plates were then counted in a PerkinElmer Topcount liquid scintillation counter (PerkinElmer Inc., Wellesley, Mass.). Binding data were analyzed by nonlinear regression analysis with the GraphPad Prism Software package (GraphPad Software, Inc., San Diego, Calif.) using the one-site competition model. […]

T2 sequence (P20309 whole entry): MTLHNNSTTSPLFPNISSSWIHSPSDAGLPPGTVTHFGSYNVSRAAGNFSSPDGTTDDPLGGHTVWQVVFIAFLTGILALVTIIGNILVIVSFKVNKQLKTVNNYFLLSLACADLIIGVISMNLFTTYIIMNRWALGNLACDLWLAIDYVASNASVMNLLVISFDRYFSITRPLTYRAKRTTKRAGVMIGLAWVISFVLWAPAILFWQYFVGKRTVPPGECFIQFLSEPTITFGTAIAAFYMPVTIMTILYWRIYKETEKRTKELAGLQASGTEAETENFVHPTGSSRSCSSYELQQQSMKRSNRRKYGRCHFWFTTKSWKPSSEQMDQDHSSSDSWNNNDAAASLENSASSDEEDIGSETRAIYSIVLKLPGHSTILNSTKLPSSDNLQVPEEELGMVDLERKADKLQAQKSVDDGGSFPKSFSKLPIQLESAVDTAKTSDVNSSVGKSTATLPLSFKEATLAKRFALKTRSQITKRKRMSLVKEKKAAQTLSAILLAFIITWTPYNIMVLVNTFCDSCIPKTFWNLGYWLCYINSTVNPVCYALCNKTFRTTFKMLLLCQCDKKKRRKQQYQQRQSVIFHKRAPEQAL
T1 sequence (P07550 whole entry): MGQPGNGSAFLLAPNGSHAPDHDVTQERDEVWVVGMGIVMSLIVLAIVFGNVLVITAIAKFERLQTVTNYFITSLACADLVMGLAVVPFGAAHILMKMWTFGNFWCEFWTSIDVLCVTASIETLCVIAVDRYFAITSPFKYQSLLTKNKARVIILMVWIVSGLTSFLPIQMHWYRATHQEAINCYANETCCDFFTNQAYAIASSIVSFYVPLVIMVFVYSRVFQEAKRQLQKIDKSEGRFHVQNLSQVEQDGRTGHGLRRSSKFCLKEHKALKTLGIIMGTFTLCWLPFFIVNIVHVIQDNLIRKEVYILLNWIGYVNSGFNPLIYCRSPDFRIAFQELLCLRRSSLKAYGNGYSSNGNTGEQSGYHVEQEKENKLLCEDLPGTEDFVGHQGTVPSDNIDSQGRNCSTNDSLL

Ki [1]: < 300 nM
Ki [2]: < 300 nM
SMILES: CN(CCCCCCCCCNC[C@H](O)c1ccc(O)c2[nH]c(=O)ccc12)CCC(C)(C)OC(=O)Nc1ccccc1-c1ccccc1 [Example 1, Biphenyl-2-ylcarbamic Acid 3-({9-[(R)-2-Hydroxy-2-(8-hydroxy-2-oxo-1,2-dihydro-quinolin-5-yl)ethylamino]nonyl}methylamino)-1,1-dimethylpropyl Ester]
